# Laboratory results from patent US11059823B2, “Small molecule inhibitors of the JAK family of kinases” (Janssen Pharmaceutica NV, priority 2016, dated 2021).
# Where two headings read alike, the source gives them in different places.
# What was measured:
# [1] = Plasma and colon concentrations after p.o. dosing (Protocols 1 and 2); assay type: in vivo, female C57BL/6 mice; conditions: female, C57BL/6, mouse, po, mice, 25 mg/kg p.o.
# Method: These protocols are described below under the heading In vivo Studies.
# (§1) Three non-fasted female C57BL/6 mice were orally administered test compound at a dose of 25 mg/kg p.o. as a solution in 20% hydroxypropyl-beta-cyclodextrin (HPβCD) at a dose volume of 5 mL/kg. Blood samples were collected at 0.5, 2, and 4 h post dose via retro-orbital bleed or venipuncture of the dorsal metatarsal vein. Blood samples were collected into tubes containing anticoagulant (Heparin-Na) and placed on wet ice. The plasma fraction was separated by centrifugation and frozen at −20° C. for up to 4 h and −80° C. after 4 h unless analyzed shortly after sample collection. Colon samples were collected at 4 h post dose. From the beginning of the cecum, a 4-6 cm sample of the colon was dissected, cut open on the longitudinal axis, and the solid contents removed by flushing with 2 mL of saline. The colon was further washed by putting it in 5 mL of saline and shaken for 5 seconds. The colon sample was then patted dry, weighed, and homogenized as 1 part tissue (g) to 4 parts HPLC grade water (mL). Concentrations of the compound in plasma and colon homogenate were determined using a qualified liquid chromatography-triple quadrupole mass spectrometry (LC-MS/MS) method.
# as §1, with “HPβCD” for “hydroxypropyl-beta-cyclodextrin (HPβCD)”, “or” for “or venipuncture of the”, “2 cm below” for “the beginning of”, “4” for “4-6”
# JAK1-JH1JH2 = JAK1-JH1JH2 (Homo sapiens (Human), UniProt P23458); assay: Enzymatic inhibition assay (HTMS), JAK1; assay type: biochemical; conditions: 12.5 μM ATP; read-out: JAK1_JH1JH2 IC50
# Chain of JAK1-JH1JH2 (P23458 574-1154): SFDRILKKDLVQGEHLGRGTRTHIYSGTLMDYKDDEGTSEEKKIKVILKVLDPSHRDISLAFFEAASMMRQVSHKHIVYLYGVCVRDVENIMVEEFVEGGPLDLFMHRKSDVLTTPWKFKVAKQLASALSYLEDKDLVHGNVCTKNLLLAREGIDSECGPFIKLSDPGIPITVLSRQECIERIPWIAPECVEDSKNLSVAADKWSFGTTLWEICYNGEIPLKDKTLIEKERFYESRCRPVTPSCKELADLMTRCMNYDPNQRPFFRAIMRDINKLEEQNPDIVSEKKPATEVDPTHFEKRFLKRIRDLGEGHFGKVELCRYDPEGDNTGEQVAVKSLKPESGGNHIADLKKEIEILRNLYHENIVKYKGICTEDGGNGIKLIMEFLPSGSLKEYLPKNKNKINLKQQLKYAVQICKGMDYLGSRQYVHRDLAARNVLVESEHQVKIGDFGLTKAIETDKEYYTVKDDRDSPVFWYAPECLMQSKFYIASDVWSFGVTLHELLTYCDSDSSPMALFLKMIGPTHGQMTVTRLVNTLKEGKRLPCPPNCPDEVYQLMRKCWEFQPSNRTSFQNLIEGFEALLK
# Source text: JAK1-JH1JH2 (574-1154 with a His-GST Tag and a C-terminal tev (ENLYFQ-G) cleavage site), JAK3-JH1JH2 (512-1124 with a GST Tag and a C-terminal tev (ENLYFQ-G) cleavage site), and Tyk2-JH1JH2 (8H_tev_580-1182-C936A-C1142A with a C-terminal tev (ENLYFQ-G) cleavage site) were purified internally. […] LC/MS grade water and acetonitrile (ACN), were purchased from HoneyWell, Burdick & Jackson (Muskegon, Mich., USA). Dimethylsulfoxide 99.8% (DMSO) and trifluoroacetic acid 99.5% (TFA) were purchased from EMD Chemical (Gibbstown, N.J., USA). Adenosine triphosphate (ATP), 4-morpholinepropanesulfonic acid (MOPS), magnesium chloride (MgCl2), ethylenediaminetetraacetic acid (EDTA), dithiothreitol (DTT), formic acid >95% (FA) and Tween-20 were purchased from Sigma (St Louis, Mo., USA). 384-well polypropylene plates, Cat#781280 were purchased from Greiner (Monroe, N.C.), RapidFire™ cartridge A C4 Column (Agilent Technologies, Santa Clara, Calif.). […]
# 11-point dosing series were made for each compound by serially diluting 1:3 or 1:4 in DMSO, with point 12 being a DMSO control. […] Compound inhibition was assessed by a decrease of the phosphorylated product levels in sample wells compared to the non-inhibited enzyme reaction. […]
compound,measurement,setting,value
"N#CC[C@H]1CC[C@H](n2c(-c3c[nH]cn3)nc3cnc4[nH]ccc4c32)CC1 [Ex. 2, 2-((1r,4r)-4-(2-(1H-Imidazol-4-yl)imidazo[4,5-d]pyrrolo[2,3-b]pyridin-1(6H)-yl)cyclohexyl)acetonitrile]",concentration at 4 h,"[1]; colon, read-out: Colon Concentration After p.o. Dosing, Mean",7600 ng/g
same,concentration at 0.5 h,"[1]; plasma, Time = 0.5 h",24.5 ng/mL
same,concentration at 2 h,"[1]; plasma, Time = 2 h",4.2 ng/mL
same,concentration at 4 h,"[1]; plasma, read-out: Plasma Concentration After p.o. Dosing, Mean",1.3 ng/mL
same,IC50,JAK1-JH1JH2,0.2 nM
